Molecules are shown by their SMILES.

This note sets out measurements from the OPERA property sets (Mansouri et al. 2018).

Settings in one data set: not given
With `c1ccc(C(c2ccccc2)(c2ccccc2)c2ccccc2)cc1`, the boiling point was found to be 431 °C and the melting point came out at 282 °C.
Turning to `CC[C@H](C)CC=O`, the boiling point stood at 121 °C.
Regarding `CCCCCCCCCCCCCC[N+](C)(C)Cc1ccccc1`, the ready biodegradability result is recorded as “not readily biodegradable”.
As for `c1cc2ccc3ccc4ccc5ccc6ccc1c1c2c3c4c5c61`, the boiling point is 525 °C, the log10 biodegradation half-life (days) worked out at 2.87, the log10 vapour pressure (mmHg) is -11.7 and the melting point is 437 °C.
Turning to `CCCCNCCO`, the boiling point amounted to 199 °C and the melting point was -2 °C.
As for `Clc1ccccc1C1CO1` (configuration not stated), the ready biodegradability result is reported as “not readily biodegradable”.
The compound `C1CN1P1(N2CC2)=NP(N2CC2)(N2CC2)=NP(N2CC2)(N2CC2)=N1` returned a melting point of 148 °C.
The compound `CCOc1cccc(N(CC)CC)c1` yielded a boiling point of 286 °C.
For the compound `CC(C)C(NC(N)=O)NC(N)=O`, the ready biodegradability entry is “readily biodegradable”.
Consider `Nc1nc(F)nc2c1ncn2[C@@H]1O[C@H](CO)[C@@H](O)[C@@H]1O`, for which the melting point came out at 260 °C.
Compound `FC(F)=C(F)C(F)(F)C(F)(F)C(F)(F)C(F)(F)C(F)(F)F` had a boiling point of 81 °C.
As to `CC(=O)CC(C)=O`, the boiling point turned out to be 138 °C, the log10 vapour pressure (mmHg) is 0.471, the melting point was -23 °C and the ready biodegradability result is “readily biodegradable”.
The compound `FC(F)(F)c1ccc2c(c1)Nc1ccccc1S2` returned a melting point of 189 °C.
Still for that read-out and setting: for `CCCCC(=O)O[C@]1(C(=O)CO)CC[C@H]2[C@@H]3CCC4=CC(=O)C=C[C@]4(C)[C@H]3[C@@H](O)C[C@@]21C` the value was 212 °C.
As to `O=C(Cl)CCC(=O)Cl`, the boiling point is 193 °C, the log10 vapour pressure (mmHg) was -0.432 and the melting point turned out to be 20 °C.
`O=C(O)[C@H]1O[C@@H](OCC(Cl)(Cl)Cl)[C@H](O)[C@@H](O)[C@@H]1O` had a melting point of 142 °C.
On the same count and under the same terms, then `C[C@H]1C[C@H]2[C@@H]3CCC4=CC(=O)C=C[C@]4(C)[C@H]3C(=O)C[C@]2(C)[C@@]1(O)C(=O)CO`, with 202 °C.
The same measure, in the same setting: for `Cc1ccc(O)c(N=Nc2ccccc2)c1` the value was 108 °C.
The compound `Cl[SiH2]c1ccccc1` returned a boiling point of 162 °C.
Turning to `CCCCOc1ccccc1`, the boiling point was determined as 210 °C, the log10 vapour pressure (mmHg) is -0.529 and the melting point is -19.4 °C.
With `CCCC(=O)C1=C(O)C(C)(C)C(O)=C(Cc2c(O)c(C)c(O)c(C(=O)CCC)c2O)C1=O`, the melting point was found to be 156 °C.
`CC(C)CC(C)CC(O)CC(C)C` (configuration not stated) yielded a boiling point of 225 °C.
Regarding `NNc1cc(Cl)ccc1Cl`, the melting point stood at 102 °C.
As to `COc1cccc2c1C(=O)c1c(O)c3c(c(O)c1C2=O)C[C@@](O)(C(C)=O)C[C@@H]3O[C@H]1C[C@H](N)[C@H](O)[C@H](C)O1`, the melting point came to 208 °C.
The same measure, in the same setting: for `C[NH+](C)CCC(c1ccc(Cl)cc1)c1ccccn1.O=C([O-])/C=C\C(=O)O` (configuration not stated) the value was 132 °C.
On to `CC1=CCCCCC1`, for which the boiling point worked out at 136 °C.
`CC(C)COC(=O)c1ccc(N)cc1` showed a melting point of 64.5 °C.
Take `O=[N+]([O-])c1cc(Cl)ccc1O`: the melting point amounted to 88.5 °C and the ready biodegradability result is “not readily biodegradable”.
Take `Cc1ccc2cc(C)ccc2c1`: the boiling point turned out to be 262 °C, the log10 vapour pressure (mmHg) was -2.37 and the melting point came out at 112 °C.
Regarding `CN(C)CC(=O)O`, the melting point stood at 186 °C.
`CC(C)COP(=O)(OCC(C)C)OCC(C)C` gave a boiling point of 264 °C.
Consider `CC(=O)OCCN(C)C`, for which the boiling point came to 152 °C.
`COc1nc(Cl)c(Cl)cc1Cl` had a log10 Koc (L/kg) of 2.96.
Take `CC(=O)c1ccc(O)cc1`: the melting point worked out at 110 °C and the ready biodegradability result is on record as “readily biodegradable”.
For `c1ccc2c(c1)CCO2`, the boiling point is 188 °C and the melting point is -21.5 °C.
`CN1CSC(=S)N(C)C1`: the log10 Henry constant (atm·m³/mol) was -9.58, the log10 Koc (L/kg) was found to be 1, the log10 vapour pressure (mmHg) was -5.55 and the melting point is 106 °C. In addition, the ready biodegradability result is listed as “not readily biodegradable”.
Take `CCc1cccnc1`: the boiling point was determined as 165 °C, the log10 Henry constant (atm·m³/mol) is -4.98, the log10 vapour pressure (mmHg) is 0.403 and the melting point was -76.9 °C.
Consider `O=Cc1cc(Br)cc(Br)c1O`, for which the melting point amounted to 86 °C.
Take `Fc1ccc(I)cc1`: the boiling point amounted to 183 °C and the melting point was -27 °C.
The compound `CC1=CC(=O)C(C(C)C)CC1` (configuration not stated) registered a boiling point of 233 °C.
In turn, `CC(Cc1ccc(O)c(O)c1)C(C)Cc1ccc(O)c(O)c1` (configuration not stated) came in with a melting point of 186 °C.
Take `Nc1c(Cl)cc([N+](=O)[O-])cc1[N+](=O)[O-]`: the ready biodegradability entry is given as “not readily biodegradable”.
With `CCOC(=O)c1cccc(OC)c1`, the boiling point worked out at 260 °C.
As to `CC(=O)C(N=Nc1ccc(-c2ccc(N=NC(C(C)=O)C(=O)Nc3ccccc3C)c(Cl)c2)cc1Cl)C(=O)Nc1ccccc1C` (configuration not stated), the ready biodegradability entry is listed as “not readily biodegradable”.
Compound `Nc1ncnc2c1ncn2[C@@H]1O[C@@H]2COP(=O)(O)O[C@H]2[C@H]1O` returned a melting point of 220 °C.
With `C=CCN(CC=C)CC=C`, the boiling point worked out at 156 °C, the log10 vapour pressure (mmHg) turned out to be 0.561 and the ready biodegradability entry was “not readily biodegradable”.
In the same order, the values of `Cc1cccc(N)c1C` are 222 °C, -1.12 and “not readily biodegradable”.
`Sc1ccccc1Cl` yielded a boiling point of 206 °C.
In the case of `O=C(Cl)Cc1ccccc1`, the log10 vapour pressure (mmHg) was -0.702.
For `OCC(F)(F)C(F)F`, the boiling point worked out at 110 °C, the log10 Henry constant (atm·m³/mol) was -5.2, the log10 vapour pressure (mmHg) worked out at 1.17 and the melting point was -15 °C.
Regarding `CCOC(C)=O`, the boiling point was found to be 77.1 °C, the log10 Henry constant (atm·m³/mol) was -3.87, the log10 Koa was 2.7 and the log10 vapour pressure (mmHg) was 1.97. In addition, the melting point is -83.6 °C and the ready biodegradability entry was “readily biodegradable”.
`COc1ccc(CC=O)cc1` returned a boiling point of 256 °C.
`CC1(C)[C@H](C(=O)O[C@H](C#N)c2cccc(Oc3ccccc3)c2)[C@@H]1/C=C(\Cl)C(F)(F)F` (single isomer, unassigned) came in with a melting point of 49.2 °C.
Still for that read-out and setting: for `CC(=O)Oc1c(C(C)(C)C)cc([N+](=O)[O-])c(C)c1[N+](=O)[O-]` the value was 86.5 °C.
As for `Cl[C@H]1[C@H](Cl)[C@@H](Cl)[C@@H](Cl)[C@H](Cl)[C@H]1Cl` (racemic), the log10 Henry constant (atm·m³/mol) was -5.5, the log10 Koa came to 8.29 and the log10 Koc (L/kg) was 3.17.
The compound `COC(=O)NS(=O)(=O)c1ccc(N)cc1` yielded a log10 Koc (L/kg) of 1.6 and a melting point of 144 °C.
Take `Fc1c(F)c(F)c(C(F)(F)F)c(F)c1F`: the boiling point worked out at 104 °C, the log10 vapour pressure (mmHg) is 1.46 and the melting point is -65.6 °C.
`CCCCCCCCCCCCOS(=O)(=O)c1ccccc1`: the ready biodegradability result is listed as “readily biodegradable”.
`Nc1cc2ccccc2cc1N` came in with a melting point of 199 °C.
`c1ccc(-c2ncoc2-c2ccccc2)cc1` yielded a melting point of 44 °C.
On the same count and under the same terms, then `CC(CN1C(=O)c2cccnc2Nc2ccccc21)N(C)C` (configuration not stated), with 122 °C.
In turn, `CCOS(=O)OCC` came in with a boiling point of 158 °C.
In the case of `Fc1c(Cl)c(F)c(Cl)c(F)c1Cl`, the boiling point came out at 198 °C.
Same read-out and setting: for `CCCC(C)(C)c1ccccc1` the value was 206 °C.
`N#C[C@H](O[C@@H]1O[C@H](CO[C@@H]2O[C@H](CO)[C@@H](O)[C@H](O)[C@H]2O)[C@@H](O)[C@H](O)[C@H]1O)c1ccccc1` displayed a melting point of 224 °C.
Consider `C=C(Cl)CO`, for which the ready biodegradability entry is “readily biodegradable”.
Regarding `Cc1ccncc1`, the boiling point was 145 °C, the log10 Henry constant (atm·m³/mol) is -5.22, the log10 vapour pressure (mmHg) amounted to 0.761 and the melting point is 3.66 °C.
Consider `CC(=O)OC[C@H]1O[C@@](COC(C)=O)(O[C@H]2O[C@H](COC(C)=O)[C@@H](OC(C)=O)[C@H](OC(C)=O)[C@H]2OC(C)=O)[C@@H](OC(C)=O)[C@@H]1OC(C)=O`, for which the melting point was 86.5 °C.
On the same count and under the same terms, then `O=C(O)c1ccnc(C(=O)O)c1C(=O)O`, with 250 °C.
As for `CCOC(=O)[N-]c1c[n+](N2CCOCC2)no1`, the melting point was determined as 140 °C.

Still in this data set, the particulars now being: fish.
In the case of `C=CCN(CC=C)CC=C`, the log10 BCF amounted to 0.55.
On the same count and under the same terms, for `Cl[C@H]1[C@H](Cl)[C@@H](Cl)[C@@H](Cl)[C@H](Cl)[C@H]1Cl` (racemic) the value was 3.04.
